Test results reported in PubChem BioAssay (NCI).
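Growth conditions: 96-well plates. Treatment: test compound, 48 hours, 5 concentrations. Analysis: linear interpolation between bracketing concentrations; unreached endpoints set to highest concentration. TGI denotes the concentration required for complete inhibition of growth.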

Legend:
Assay in all cases: NCI anticancer screen, dose series, 48 h
[1] = system: CCRF-CEM leukemia
[2] = system: SF-295 CNS
[3] = system: 786-0 renal
[4] = system: OVCAR-8 ovarian
[5] = system: HS 578T breast
[6] = system: MOLT-4 leukemia
[7] = system: OVCAR-3 ovarian
[8] = system: K-562 leukemia
[9] = system: HOP-92 NSCLC
[10] = system: EKVX NSCLC
[11] = system: SNB-75 CNS
[12] = system: HT29 colon
[13] = system: DU-145 prostate
[14] = system: HOP-62 NSCLC
[15] = system: M14 melanoma
[16] = system: SF-268 CNS
[17] = system: A549 NSCLC
[18] = system: HCC-2998 colon

SMILES | TGI [1] | TGI [2] | TGI [3] | TGI [4] | TGI [5] | TGI [6] | TGI [7] | TGI [8] | TGI [9] | TGI [10] | TGI [11] | TGI [12] | TGI [13] | TGI [14] | TGI [15] | TGI [16] | TGI [17] | TGI [18]
C1CNOCCCONCCCNOCCCONC1 | > 100 µM | > 100 µM | > 100 µM | > 100 µM | > 100 µM | > 100 µM | > 100 µM | > 100 µM | 82.1 µM | > 100 µM | > 100 µM | > 100 µM | > 100 µM | > 100 µM | > 100 µM | > 100 µM | > 100 µM | –
CSc1ncnc2c1cnn2Cc1cnnn1COCC(O)CO (centres undefined) | > 100 µM | > 100 µM | > 100 µM | > 100 µM | – | > 100 µM | > 100 µM | > 100 µM | – | > 100 µM | – | > 100 µM | > 100 µM | > 100 µM | > 100 µM | 46.5 µM | > 100 µM | > 100 µM
CCOC(=O)N/N=C(/N)c1cccc(Br)c1 | > 100 µM | > 100 µM | > 100 µM | > 100 µM | > 100 µM | > 100 µM | > 100 µM | > 100 µM | – | > 100 µM | > 100 µM | > 100 µM | > 100 µM | > 100 µM | > 100 µM | > 100 µM | > 100 µM | > 100 µM
CC1(C)OC(=O)C(C)(C)C(=O)O1 | > 100 µM | > 100 µM | > 100 µM | > 100 µM | > 100 µM | > 100 µM | – | > 100 µM | – | > 100 µM | > 100 µM | > 100 µM | > 100 µM | > 100 µM | > 100 µM | > 100 µM | > 100 µM | > 100 µM
O=Cc1c[nH]c2c(=O)[nH]cnc12 | > 100 µM | > 100 µM | > 100 µM | > 100 µM | – | > 100 µM | > 100 µM | > 100 µM | > 100 µM | > 100 µM | > 100 µM | > 100 µM | – | > 100 µM | > 100 µM | > 100 µM | > 100 µM | > 100 µM
O=C(Cc1ccccc1)NN1C(=O)C(Cl)C1c1ccccc1Cl (centres undefined) | 55.8 µM | > 100 µM | > 100 µM | > 100 µM | – | 62.8 µM | > 100 µM | > 100 µM | > 100 µM | > 100 µM | > 100 µM | > 100 µM | – | > 100 µM | > 100 µM | > 100 µM | > 100 µM | > 100 µM
CN(C)CCN(C)P12(Oc3ccccc3O1)Oc1c(Cl)c(Cl)c(Cl)c(Cl)c1O2 | 92.2 µM | > 100 µM | > 100 µM | > 100 µM | – | > 100 µM | > 100 µM | > 100 µM | 92.7 µM | > 100 µM | 82 µM | > 100 µM | > 100 µM | > 100 µM | > 100 µM | > 100 µM | > 100 µM | > 100 µM
COc1cc2ccc3c4ccccc4cnc3c2cc1OC | > 100 µM | > 100 µM | > 100 µM | > 100 µM | – | > 100 µM | > 100 µM | > 100 µM | > 100 µM | > 100 µM | > 100 µM | > 100 µM | – | > 100 µM | > 100 µM | > 100 µM | > 100 µM | > 100 µM
CO/C(N)=C(\C#N)N=Cc1ccc2ccccc2c1 | > 100 µM | > 100 µM | > 100 µM | > 100 µM | > 100 µM | > 100 µM | > 100 µM | 94.6 µM | > 100 µM | > 100 µM | > 100 µM | > 100 µM | > 100 µM | > 100 µM | – | > 100 µM | > 100 µM | –
Cn1c(=O)c2[nH]c(N=O)nc2n(C)c1=O | – | > 100 µM | > 100 µM | > 100 µM | > 100 µM | > 100 µM | > 100 µM | > 100 µM | – | > 100 µM | > 100 µM | > 100 µM | > 100 µM | > 100 µM | > 100 µM | > 100 µM | > 100 µM | > 100 µM
CCc1n[nH]c(=O)n1CCCCCCCCn1c(CC)n[nH]c1=O | > 100 µM | > 100 µM | > 100 µM | > 100 µM | > 100 µM | > 100 µM | > 100 µM | > 100 µM | > 100 µM | > 100 µM | > 100 µM | > 100 µM | – | > 100 µM | > 100 µM | > 100 µM | > 100 µM | > 100 µM
